Test results from PMC5126721 (ACS Central Science, 2016).

Target: lysozyme (Gallus gallus, UniProt P00698)
Assay: TIMES
Assay type: binding

Sequence of lysozyme (P00698 19-147): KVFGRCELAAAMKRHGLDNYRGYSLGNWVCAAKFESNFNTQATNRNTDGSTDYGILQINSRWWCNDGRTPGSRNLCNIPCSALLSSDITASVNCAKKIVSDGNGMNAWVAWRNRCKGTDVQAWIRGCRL

`CC(=O)N[C@H]1[C@H](O[C@H]2[C@H](O)[C@@H](NC(C)=O)C(O)O[C@@H]2CO)O[C@H](CO)[C@@H](O[C@@H]2O[C@H](CO)[C@@H](O)[C@H](O)[C@H]2NC(C)=O)[C@@H]1O` (stereo partly shown) [NAG3, N,N′,N″-triacetylchitotriose] was tested. Which Kd did it give?
Its Kd is 39.8 µM.
